pIC50: −log10 of the molar value. Positions of bridges follow the written chain, without caps; N, C: chain ends. Non-standard residues stand in square brackets, D forms with d. Residues, ends and D or L forms follow the SMILES beside them. Phe(3,4-(OMe)2) = COc1ccc(C[C@H](N)C(=O)O)cc1OC; Phe(4-CH2NH2) = NCc1ccc(C[C@H](N)C(=O)O)cc1; Bip = N[C@@H](Cc1ccc(-c2ccccc2)cc1)C(=O)O; Phe(4-Cl) = N[C@@H](Cc1ccc(Cl)cc1)C(=O)O; 2Nal = N[C@@H](Cc1ccc2ccccc2c1)C(=O)O; NMeF = CN[C@@H](Cc1ccccc1)C(=O)O; NMeNle = CCCC[C@H](NC)C(=O)O; Sar = CNCC(=O)O
What was measured:
[1] = target: T1, LK35.2-hPD-L1 cells / PE-labeled PD-1-Ig (Homo sapiens, UniProt Q9NZQ7); test: LK35.2-hPD-L1 cell binding high-content screening assay; type: cell-based; conditions: cell binding assay, cell line not given; cluster symbol; read-out: CBA IC50 cluster
T1 construct: expressed in transfected cells; host or cells: LK35.2 mouse B cell line
Summary of the method: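 Mouse LK35.2 B cells stably overexpressing human PD-L1 were cultured overnight in RPMI with 10% FCS, then given compound and PE-labeled human PD-1-Ig (1 nM final) for 1 h at 37 °C. After three dPBS washes, bound fluorescence was quantified by high-content imaging.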

Human PD-L1/PD-1 = target: T2, Human PD-L1/PD-1 (Homo sapiens, UniProt Q9NZQ7); test: HTRF PD-1-Ig/PD-L1-His binding assay (human PD-L1); conditions: cluster symbol; read-out: HTRF IC50 cluster
T2 construct: made in house; host or cells: HEK293T
Summary of the method: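 The time-resolved fluorescence signal comes from Eu-cryptate anti-Ig (1 nM) and APC anti-His (20 nM) antibodies bound to a PD-1-Ig/PD-L1-His complex. Both partners lack transmembrane regions.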

T1 sequence (Q9NZQ7 19-290): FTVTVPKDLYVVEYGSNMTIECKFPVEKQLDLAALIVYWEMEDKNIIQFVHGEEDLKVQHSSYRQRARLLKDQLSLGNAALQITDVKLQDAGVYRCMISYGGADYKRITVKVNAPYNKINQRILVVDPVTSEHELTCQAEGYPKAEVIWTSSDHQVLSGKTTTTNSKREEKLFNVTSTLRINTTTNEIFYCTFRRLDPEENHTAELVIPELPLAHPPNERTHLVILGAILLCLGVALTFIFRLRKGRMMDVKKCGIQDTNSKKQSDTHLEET
T2 sequence (Q9NZQ7 with tags, fused parts or gaps): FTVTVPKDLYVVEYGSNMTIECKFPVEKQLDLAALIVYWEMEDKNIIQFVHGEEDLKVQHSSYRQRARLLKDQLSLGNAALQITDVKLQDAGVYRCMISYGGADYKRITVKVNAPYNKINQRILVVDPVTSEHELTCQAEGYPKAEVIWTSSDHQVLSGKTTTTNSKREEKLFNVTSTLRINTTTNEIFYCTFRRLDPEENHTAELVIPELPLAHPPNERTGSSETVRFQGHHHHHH

pIC50 [1] | pIC50 (Human PD-L1/PD-1) | Structure (SMILES)
7.14 to 8.32 | < 7.52 | CCCC[C@H]1C(=O)N(C)CC(=O)N[C@@H](CC(=O)O)C(=O)N[C@@H](CC(C)C)C(=O)N(C)[C@@H](Cc2ccccc2)C(=O)N[C@@H](Cc2ccc(O)cc2)C(=O)N(C)CC(=O)N[C@@H](Cc2c[nH]c3ccccc23)C(=O)N[C@@H](Cc2ccc(O)cc2)C(=O)N[C@@H](CC(C)C)C(=O)N[C@H](C(=O)NCC(N)=O)CSCC(=O)N[C@@H](Cc2ccccc2)C(=O)N(C)[C@@H](Cc2ccccc2)C(=O)N1C [Example 3529] (HELM PEPTIDE1{[O=C(C[*:3])[*:2]].F.[meF].[CCCC[C@@H](C(=O)[*:2])N(C)[*:1]].[Sar].D.L.[meF].Y.[Sar].W.Y.L.C.G.[am]}$PEPTIDE1,PEPTIDE1,1:R3-14:R3$$$V2.0)
7.14 to 8.32 | 7.52 to 8.17 | CCCC[C@H]1C(=O)N(C)CC(=O)N[C@@H](CC(=O)O)C(=O)N[C@@H](C(C)C)C(=O)N(C)[C@@H](Cc2ccccc2)C(=O)N[C@@H](Cc2ccc(OC)c(OC)c2)C(=O)N(C)CC(=O)N[C@@H](Cc2c[nH]c3ccccc23)C(=O)N[C@@H](Cc2ccc(O)cc2)C(=O)N[C@@H](CC(C)C)C(=O)N[C@H](C(=O)NCC(N)=O)CSCC(=O)N[C@@H](Cc2ccccc2)C(=O)N(C)[C@@H](Cc2ccccc2)C(=O)N1C [Example 3533] ({CH2CO}-F[NMeF][NMeNle][Sar]DV[NMeF][Phe(3,4-(OMe)2)][Sar]WYLCG-NH2; thioether N-13)
7.14 to 8.32 | 7.52 to 8.17 | CCCC[C@H]1C(=O)N(C)CC(=O)N[C@@H](CC(=O)O)C(=O)N[C@@H](C(C)C)C(=O)N(C)[C@@H](Cc2ccccc2)C(=O)N[C@@H](Cc2ccccc2)C(=O)N(C)CC(=O)N[C@@H](Cc2c[nH]c3ccccc23)C(=O)N[C@@H](Cc2ccc(O)cc2)C(=O)N[C@@H](CC(C)C)C(=O)N[C@H](C(=O)NCC(N)=O)CSCC(=O)N[C@@H](Cc2ccccc2)C(=O)N(C)[C@@H](Cc2ccccc2)C(=O)N1C [Example 3534] (HELM PEPTIDE1{[O=C(C[*:3])[*:2]].F.[meF].[CCCC[C@@H](C(=O)[*:2])N(C)[*:1]].[Sar].D.V.[meF].F.[Sar].W.Y.L.C.G.[am]}$PEPTIDE1,PEPTIDE1,1:R3-14:R3$$$V2.0)
7.14 to 8.32 | < 7.52 | CCCC[C@H]1C(=O)N(C)CC(=O)N[C@@H](CC(=O)O)C(=O)N[C@@H](C(C)C)C(=O)N(C)[C@@H](Cc2ccccc2)C(=O)N[C@@H](Cc2ccc3ccccc3c2)C(=O)N(C)CC(=O)N[C@@H](Cc2c[nH]c3ccccc23)C(=O)N[C@@H](Cc2ccc(O)cc2)C(=O)N[C@@H](CC(C)C)C(=O)N[C@H](C(=O)NCC(N)=O)CSCC(=O)N[C@@H](Cc2ccccc2)C(=O)N(C)[C@@H](Cc2ccccc2)C(=O)N1C [Example 3535] ({CH2CO}-F[NMeF][NMeNle][Sar]DV[NMeF][2Nal][Sar]WYLCG-NH2; thioether N-13)
7.14 to 8.32 | 7.52 to 8.17 | CCCC[C@H]1C(=O)N(C)CC(=O)N[C@@H](CC(=O)O)C(=O)N[C@@H](C(C)C)C(=O)N(C)[C@@H](Cc2ccccc2)C(=O)N[C@@H](Cc2ccc(O)cc2)C(=O)N(C)CC(=O)N[C@@H](Cc2c[nH]c3ccccc23)C(=O)N[C@@H](Cc2ccc(O)cc2)C(=O)N[C@@H](Cc2ccc(CN)cc2)C(=O)N[C@H](C(=O)NCC(N)=O)CSCC(=O)N[C@@H](Cc2ccccc2)C(=O)N(C)[C@@H](Cc2ccccc2)C(=O)N1C [Example 3536] ({CH2CO}-F[NMeF][NMeNle][Sar]DV[NMeF]Y[Sar]WY[Phe(4-CH2NH2)]CG-NH2; thioether N-13)
7.14 to 8.32 | 7.52 to 8.17 | CCCC[C@H]1C(=O)N(C)CC(=O)N[C@@H](CC(=O)O)C(=O)N[C@@H](C(C)C)C(=O)N(C)[C@@H](Cc2ccccc2)C(=O)N[C@@H](Cc2ccc(O)cc2)C(=O)N(C)CC(=O)N[C@@H](Cc2c[nH]c3ccccc23)C(=O)N[C@@H](Cc2ccc(O)cc2)C(=O)N[C@@H](Cc2ccccc2)C(=O)N[C@H](C(=O)NCC(N)=O)CSCC(=O)N[C@@H](Cc2ccccc2)C(=O)N(C)[C@@H](Cc2ccccc2)C(=O)N1C [Example 3537] (HELM PEPTIDE1{[O=C(C[*:3])[*:2]].F.[meF].[CCCC[C@@H](C(=O)[*:2])N(C)[*:1]].[Sar].D.V.[meF].Y.[Sar].W.Y.F.C.G.[am]}$PEPTIDE1,PEPTIDE1,1:R3-14:R3$$$V2.0)
< 7.13 | < 7.52 | CCCC[C@H]1C(=O)N(C)CC(=O)N[C@@H](CC(=O)O)C(=O)N[C@@H](C(C)C)C(=O)N(C)[C@@H](Cc2ccccc2)C(=O)N[C@@H](Cc2ccc(O)cc2)C(=O)N(C)CC(=O)N[C@@H](Cc2c[nH]c3ccccc23)C(=O)N[C@@H](Cc2ccc3ccccc3c2)C(=O)N[C@@H](CC(C)C)C(=O)N[C@H](C(=O)NCC(N)=O)CSCC(=O)N[C@@H](Cc2ccccc2)C(=O)N(C)[C@@H](Cc2ccccc2)C(=O)N1C [Example 3538] ({CH2CO}-F[NMeF][NMeNle][Sar]DV[NMeF]Y[Sar]W[2Nal]LCG-NH2; thioether N-13)
< 7.13 | < 7.52 | CCCC[C@H]1C(=O)N(C)CC(=O)N[C@@H](CC(=O)O)C(=O)N[C@@H](C(C)C)C(=O)N(C)[C@@H](Cc2ccccc2)C(=O)N[C@@H](Cc2ccc(O)cc2)C(=O)N(C)CC(=O)N[C@@H](Cc2c[nH]c3ccccc23)C(=O)N[C@@H](Cc2c[nH]c3ccccc23)C(=O)N[C@@H](CC(C)C)C(=O)N[C@H](C(=O)NCC(N)=O)CSCC(=O)N[C@@H](Cc2ccccc2)C(=O)N(C)[C@@H](Cc2ccccc2)C(=O)N1C [Example 3539] (HELM PEPTIDE1{[O=C(C[*:3])[*:2]].F.[meF].[CCCC[C@@H](C(=O)[*:2])N(C)[*:1]].[Sar].D.V.[meF].Y.[Sar].W.W.L.C.G.[am]}$PEPTIDE1,PEPTIDE1,1:R3-14:R3$$$V2.0)
< 7.13 | < 7.52 | CCCC[C@H]1C(=O)N(C)CC(=O)N[C@@H](CC(=O)O)C(=O)N[C@@H](C(C)C)C(=O)N(C)[C@@H](Cc2ccccc2)C(=O)N[C@@H](Cc2ccc(O)cc2)C(=O)N(C)CC(=O)N[C@@H](Cc2c[nH]c3ccccc23)C(=O)N[C@@H](Cc2ccccc2)C(=O)N[C@@H](CC(C)C)C(=O)N[C@H](C(=O)NCC(N)=O)CSCC(=O)N[C@@H](Cc2ccccc2)C(=O)N(C)[C@@H](Cc2ccccc2)C(=O)N1C [Example 3540] (HELM PEPTIDE1{[O=C(C[*:3])[*:2]].F.[meF].[CCCC[C@@H](C(=O)[*:2])N(C)[*:1]].[Sar].D.V.[meF].Y.[Sar].W.F.L.C.G.[am]}$PEPTIDE1,PEPTIDE1,1:R3-14:R3$$$V2.0)
< 7.13 | < 7.52 | CCCC[C@H]1C(=O)N(C)CC(=O)N[C@@H](CC(=O)O)C(=O)N[C@@H](C(C)C)C(=O)N(C)[C@@H](Cc2ccccc2)C(=O)N[C@@H](Cc2ccc(O)cc2)C(=O)N(C)CC(=O)N[C@@H](Cc2c[nH]c3ccccc23)C(=O)N[C@@H](Cc2ccc(OC)c(OC)c2)C(=O)N[C@@H](CC(C)C)C(=O)N[C@H](C(=O)NCC(N)=O)CSCC(=O)N[C@@H](Cc2ccccc2)C(=O)N(C)[C@@H](Cc2ccccc2)C(=O)N1C [Example 3541] ({CH2CO}-F[NMeF][NMeNle][Sar]DV[NMeF]Y[Sar]W[Phe(3,4-(OMe)2)]LCG-NH2; thioether N-13)
7.14 to 8.32 | 7.52 to 8.17 | CCCC[C@H]1C(=O)N(C)CC(=O)N[C@@H](CC(=O)O)C(=O)N[C@@H](C(C)C)C(=O)N(C)[C@@H](Cc2ccccc2)C(=O)N[C@@H](CCCNC(=N)N)C(=O)N(C)CC(=O)N[C@@H](Cc2c[nH]c3ccccc23)C(=O)N[C@@H](Cc2ccc(O)cc2)C(=O)N[C@@H](CCC(=O)O)C(=O)N[C@H](C(=O)NCC(N)=O)CSCC(=O)N[C@@H](Cc2ccccc2)C(=O)N(C)[C@@H](Cc2ccccc2)C(=O)N1C [Example 3542] (HELM PEPTIDE1{[O=C(C[*:3])[*:2]].F.[meF].[CCCC[C@@H](C(=O)[*:2])N(C)[*:1]].[Sar].D.V.[meF].R.[Sar].W.Y.E.C.G.[am]}$PEPTIDE1,PEPTIDE1,1:R3-14:R3$$$V2.0)
< 7.13 | < 7.52 | CCCC[C@H]1C(=O)N(C)CC(=O)N[C@@H](CC(=O)O)C(=O)N[C@@H](Cc2ccccc2)C(=O)N(C)[C@@H](Cc2ccccc2)C(=O)N[C@@H](Cc2ccc(O)cc2)C(=O)N(C)CC(=O)N[C@@H](Cc2c[nH]c3ccccc23)C(=O)N[C@@H](Cc2ccc(O)cc2)C(=O)N[C@@H](CC(C)C)C(=O)N[C@H](C(=O)NCC(N)=O)CSCC(=O)N[C@@H](Cc2ccccc2)C(=O)N(C)[C@@H](Cc2ccccc2)C(=O)N1C [Example 3543] (HELM PEPTIDE1{[O=C(C[*:3])[*:2]].F.[meF].[CCCC[C@@H](C(=O)[*:2])N(C)[*:1]].[Sar].D.F.[meF].Y.[Sar].W.Y.L.C.G.[am]}$PEPTIDE1,PEPTIDE1,1:R3-14:R3$$$V2.0)
< 7.13 | < 7.52 | CCCC[C@H]1C(=O)N(C)CC(=O)N[C@@H](CC(=O)O)C(=O)N[C@@H](C(C)C)C(=O)N(C)[C@@H](Cc2ccccc2)C(=O)N[C@@H](Cc2ccc(O)cc2)C(=O)N(C)CC(=O)N[C@@H](Cc2ccc(-c3ccccc3)cc2)C(=O)N[C@@H](Cc2ccc(O)cc2)C(=O)N[C@@H](CC(C)C)C(=O)N[C@H](C(=O)NCC(N)=O)CSCC(=O)N[C@@H](Cc2ccccc2)C(=O)N(C)[C@@H](Cc2ccccc2)C(=O)N1C [Example 3545] ({CH2CO}-F[NMeF][NMeNle][Sar]DV[NMeF]Y[Sar][Bip]YLCG-NH2; thioether N-13)
< 7.13 | < 7.52 | CCCC[C@H]1C(=O)N(C)CC(=O)N[C@@H](CC(=O)O)C(=O)N[C@@H](C(C)C)C(=O)N(C)[C@@H](Cc2ccccc2)C(=O)N[C@@H](Cc2ccc(O)cc2)C(=O)N(C)CC(=O)N[C@@H](Cc2ccc(Cl)cc2)C(=O)N[C@@H](Cc2ccc(O)cc2)C(=O)N[C@@H](CC(C)C)C(=O)N[C@H](C(=O)NCC(N)=O)CSCC(=O)N[C@@H](Cc2ccccc2)C(=O)N(C)[C@@H](Cc2ccccc2)C(=O)N1C [Example 3546] ({CH2CO}-F[NMeF][NMeNle][Sar]DV[NMeF]Y[Sar][Phe(4-Cl)]YLCG-NH2; thioether N-13)
